According to patent US10919899B2, “Imidazopyrazine compounds, preparation methods and uses thereof” (DONGGUAN ZHENXING-BEITE MEDICINE TECHNOLOGY CO., LTD., priority 2017, dated 2021):
pIC50: −log10 of the molar value. Entries after “also recorded” stand apart in the source; their conditions may differ. Each block holds one compound with its values, some of them ahead of it.

How the values were obtained:
BTK = BTK (Homo sapiens (Human), UniProt Q06187); test: BTK kinase activity inhibition assay (Caliper mobility shift); format: biochemical; conditions: ATP 90 μM, read-out: BTK IC50 level
Procedure: Activity of BTK protein kinase was tested by Caliper mobility shift assay (referring to J Biomol Screen 14:31, 2009). The compound of the present disclosure was dissolved in DMSO and then diluted 10-fold with kinase buffer solution (50 mM HEPES-pH 7.5, 0.0015% Brij-35, 10 mM MgCl2, 2 mM DTT). […] 10 μl of a substrate solution of a substrate FAM-labeled SRCtide peptide (Biochem, Cat. No. 112394) and ATP (90 μM) with 2.5-fold final reaction concentration was further added to start the reaction. Then incubation was performed for 10 minutes at room temperature. After incubation for 1 hour 28° C., 25 μl of stopping solution (100 mM HEPES, pH 7.5, 0.015% Brij-35, 0.2% Coating Reagent #3, 50 mM EDTA) was added to terminate the reaction. The conversion ratio data was read on Caliper EZ Reader II (Caliper Life Sciences). The inhibition ratio was calculated and the calculation formula is: inhibition ratio %=(max-conversion)/(max-min)×100 %.

[1] = test system: Diffuse large B cell lymphoma cell strain TMD-8; test: Tumor cell proliferation inhibition assay (CellTiter-Glo), TMD-8; format: cell-based; conditions: Homo sapiens, TMD8; 72 hours, 10% fetal calf serum; read-out: TMD-8 anti-proliferative IC50 level
Procedure: (§1) Cell viability was evaluated by measuring a content of triphosadenine (ATP) by using CellTiter-Glo luminescent cell viability assay kit method (Promega, # G7572, Madison, Wis.). Diffuse large B cell lymphoma cell strain TMD-8 and HCC827 NSCL cell strains are purchased from Shanghai Fudan IBS Cell Center and American Type Culture Collection (ATCC). After the cells were digested from a cell culture dish by pancreatin and re-suspended by DPBS culture medium, a Scepter automatic cell counter (Millipore, # PHCC00000) was used for counting to measure a cell density. The cells were diluted to be a solution containing 44,000 cells per milliliter. The cell solution with the adjusted density was added into a cell assay plate with 90 μl per well. The well plate was placed to an incubator with 5% CO2 at 37° C. to be incubated for 24 hours and then added with the compound to be tested with different concentrations. The cells and the compound were together incubated for 72 hours in the presence of 10% fetal calf serum. The content of ATP was measured by using CellTiter-Glo® Luminescent Cell Viability Assay kit (referring to manufacturer's instruction) to evaluate the inhibition to the cell growth. Briefly speaking, each well was added with 30 μl of CellTiter-Glo® reagent, the plate was shaken for 10 minutes to induce the cells to be lysed, and fluorescence signal was detected and recorded by fluorescencelchemiluminescence analyzer Fluoroskan Ascent FL (Thermo Scientific Fluoroskan Ascent FL). The maximal signal value was obtained from cells processed by dimethyl sulfoxide (DMSO) for 72 or 120 hours. The minimal signal value obtained from separate culture medium (wherein the number of cells was zero) was defined as 0. Inhibition ratio %=(maximal signal value-compound signal value)/(maximal signal value−minimal signal value)×100%. The data was processed by using GraphPad Prism V5.0 (GraphPad Software San Diego, Calif.) software. IC50 value was fitted and calculated via S-shaped dose-response curve.

HCC827 NSCLC cell = test: Tumor cell proliferation inhibition assay (CellTiter-Glo), HCC827; format: cell-based; conditions: Homo sapiens, 72 hours, 10% fetal calf serum, read-out: HCC827 anti-proliferative IC50 level
Procedure: as §1

Txk (h) = Txk (h) (Homo sapiens (Human), UniProt P42681); test: Txk activity inhibition assay (radioactive protein kinase method, Eurofins); format: biochemical; conditions: for pIC50: Km ATP, radiometric
Procedure: (§2) The inhibitory activities of the compound to Tec, Txk, and ITK of human were performed by Eurofins Pharma Discovery Services UK Limited (UK) of the United Kingdom. In the case of Km ATP, the radioactive protein kinase method was adopted by the test. The kinase was diluted with buffer solution (20 mM MOPS, 1 mM EDTA, 0.01% Brij-35, 5% Glycerol, 0.1% […], 1 mg/mL BSA) before the reaction. The compound was dissolved in 100% DMSO and was of 50-fold final reaction concentration.
TxK reaction solution contained 8 mM MOPS pH 7.0, 0.2 mM EDTA, 250 μM […], 10 mM magnesium acetate, and [γ-^33P]-ATP (about 500 cpm/pmol), 200 μM ATP-Mg was added, after mixing, the reaction was started, the incubation was performed for 40 minutes at room temperature, and 3% phosphoric acid solution was added to terminate the reaction, 10 μl (reaction solution) was placed on P30 filtration membrane, washed with 75 mM phosphoric acid for 5 minutes, and dried with methanol for one time, and then scintillation counting was performed.

[2] = Pharmacokinetic (PK) assay in rats; format: in vivo, rat; conditions: 20 mg/kg oral; for AUC(0-t): read-out: AUC0-24
Procedure: A male SD rat with 250-300 g of weight was fasted overnight before the assay. The compound to be tested was dissolved in 30% sulfobutyl ether-β-cyclodextrin (SBE-β-CD) and intragastrically administrated to the rat by 20 mg/kg of dosages. Take blood at 15th minute, 30th minute, and 1st, 2nd, 3rd, 4th, 6th, 8th, and 24th hours after the administratation, and about 0.3 mL of blood was taken at each time point. The blood samples were placed into centrifuge tubes containing K2-EDTA (dipotassium ethylene diamine tetraacetate) and plasma was taken via centrifugal treatment (2,000 g, 10 minutes, 4° C.) and stored in a −80° C. of ultra low temperature refrigerator. 50 μL of plasma sample was mixed with 50 μL of internal standard (IS) and extracted with ethyl acetate. After vacuum dried, the residue was re-dissolved in acetonitrile The sample was filtered and injected into LC-MS/MS to be analyzed.

EGFR T790M/L858R = EGFR T790M/L858R (Homo sapiens, UniProt P00533, L858R/T790M); test: EGFR activity inhibition assay (Caliper mobility shift); format: biochemical
Description: The conversion ratio data was read on Caliper EZ Reader II (Caliper Life Sciences).

Itk (h) = Itk (h) (Homo sapiens (Human), UniProt Q08881); test: ITK activity inhibition assay (radioactive protein kinase method, Eurofins); format: biochemical
Procedure: as §2
ITK reaction solution included 8 mM MOPS pH 7.0, 0.2 mM EDTA, 0.33 mg/mL myelin basic protein, 10 mM magnesium acetate, and [γ-^33P]-ATP (about 500 cpm/pmol), 200 μM ATP-Mg was added, after mixing, the reaction was started, the incubation was performed for 40 minutes at room temperature, and 3% phosphoric acid solution was added to terminate the reaction. 10 μl (reaction solution) was placed on P30 filtration membrane, washed with 75 mM phosphoric acid for 5 minutes, and dried with methanol for one time, and then scintillation counting was performed.

Tec (h) activated = Tec (h) activated (Homo sapiens (Human), UniProt P42680); test: Tec activity inhibition assay (radioactive protein kinase method, Eurofins); format: biochemical
Procedure: as §2
10 μl (reaction solution) was placed on P30 filtration membrane, washed with 75 mM phosphoric acid for 5 minutes, and dried with methanol for one time, and then scintillation counting was performed.

[3] = test system: TMD-8 lymphoma cell strain transplanted tumor; test: Tumor model pharmacodynamic assay, TMD-8 transplanted tumor; format: in vivo, mice; conditions: for T/C (relative tumor volume increased ratio): 18 days
Procedure: The dose-effect relationship of inhibition of the compound to tumor growth in a diffuse large B cell lymphoma cell strain TMD-8 transplanted tumor model was studied in the present assay. When volume of TMD-8 tumor reached around 200 mm^3, the animals were divided into four oral administration groups, i.e. vehicle control group and 50 mg/kg, 100 mg/kg, and 200 mg/kg of compound 1 oral administration groups (n=8/
roup). […]
The tumor volume was measured, and the relative tumor volume (RTV) and the relative tumor volume increased ratio were calculated. RTV=Vt/V0, wherein Vt is the average value of the tumor volume at t^th day after the grouping and administrating, and V0 is the average value of the tumor volume at the grouping day. T/C=treatment group RTV/control group RTVx100%.

Sequence of Txk (h) (P42681 whole entry): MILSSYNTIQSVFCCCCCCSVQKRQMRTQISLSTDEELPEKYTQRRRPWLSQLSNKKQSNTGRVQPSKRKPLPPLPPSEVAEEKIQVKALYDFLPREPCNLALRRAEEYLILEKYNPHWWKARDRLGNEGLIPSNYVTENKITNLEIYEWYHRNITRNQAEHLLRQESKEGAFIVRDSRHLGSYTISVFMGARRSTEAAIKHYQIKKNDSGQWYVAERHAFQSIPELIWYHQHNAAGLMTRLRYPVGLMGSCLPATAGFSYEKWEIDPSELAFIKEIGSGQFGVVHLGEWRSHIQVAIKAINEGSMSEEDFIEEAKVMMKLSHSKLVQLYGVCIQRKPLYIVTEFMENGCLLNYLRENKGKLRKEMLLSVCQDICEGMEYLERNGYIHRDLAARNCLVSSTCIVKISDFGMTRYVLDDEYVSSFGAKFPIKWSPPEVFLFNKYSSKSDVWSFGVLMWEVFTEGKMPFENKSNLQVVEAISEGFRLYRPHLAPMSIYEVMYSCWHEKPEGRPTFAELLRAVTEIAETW
Sequence of BTK (Q06187 whole entry): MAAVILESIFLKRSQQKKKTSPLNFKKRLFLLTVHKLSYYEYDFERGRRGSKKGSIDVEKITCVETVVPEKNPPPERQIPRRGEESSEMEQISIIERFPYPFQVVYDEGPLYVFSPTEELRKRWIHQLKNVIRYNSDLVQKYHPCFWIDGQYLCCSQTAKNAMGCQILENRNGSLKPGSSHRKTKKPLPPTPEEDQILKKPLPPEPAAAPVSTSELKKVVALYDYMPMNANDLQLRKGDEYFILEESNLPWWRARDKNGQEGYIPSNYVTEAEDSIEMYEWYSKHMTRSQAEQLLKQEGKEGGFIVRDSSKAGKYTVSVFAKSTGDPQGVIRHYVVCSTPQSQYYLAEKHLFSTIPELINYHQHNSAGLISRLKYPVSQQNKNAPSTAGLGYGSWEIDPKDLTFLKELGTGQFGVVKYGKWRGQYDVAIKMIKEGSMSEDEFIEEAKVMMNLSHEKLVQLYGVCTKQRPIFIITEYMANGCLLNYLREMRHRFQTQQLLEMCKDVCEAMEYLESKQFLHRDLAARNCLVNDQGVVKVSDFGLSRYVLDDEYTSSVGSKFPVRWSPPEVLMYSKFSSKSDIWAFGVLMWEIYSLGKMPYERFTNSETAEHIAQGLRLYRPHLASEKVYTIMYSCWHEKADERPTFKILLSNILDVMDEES
Sequence of Itk (h) (Q08881 whole entry): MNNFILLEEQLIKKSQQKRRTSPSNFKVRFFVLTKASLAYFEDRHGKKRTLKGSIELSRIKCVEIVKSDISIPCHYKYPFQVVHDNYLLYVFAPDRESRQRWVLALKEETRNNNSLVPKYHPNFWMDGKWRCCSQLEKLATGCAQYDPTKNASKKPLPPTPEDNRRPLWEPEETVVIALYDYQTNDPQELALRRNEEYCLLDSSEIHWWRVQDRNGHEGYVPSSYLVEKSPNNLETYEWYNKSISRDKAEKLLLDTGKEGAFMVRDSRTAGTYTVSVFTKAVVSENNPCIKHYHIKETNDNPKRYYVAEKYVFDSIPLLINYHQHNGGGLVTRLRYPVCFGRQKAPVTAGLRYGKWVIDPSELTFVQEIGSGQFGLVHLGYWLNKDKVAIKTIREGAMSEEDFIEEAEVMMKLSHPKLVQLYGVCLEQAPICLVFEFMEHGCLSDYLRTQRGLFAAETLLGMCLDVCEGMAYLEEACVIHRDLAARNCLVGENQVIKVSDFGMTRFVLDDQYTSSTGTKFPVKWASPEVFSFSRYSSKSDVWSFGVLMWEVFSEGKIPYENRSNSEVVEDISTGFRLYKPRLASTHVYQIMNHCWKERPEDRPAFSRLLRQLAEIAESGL
Sequence of Tec (h) activated (P42680 whole entry): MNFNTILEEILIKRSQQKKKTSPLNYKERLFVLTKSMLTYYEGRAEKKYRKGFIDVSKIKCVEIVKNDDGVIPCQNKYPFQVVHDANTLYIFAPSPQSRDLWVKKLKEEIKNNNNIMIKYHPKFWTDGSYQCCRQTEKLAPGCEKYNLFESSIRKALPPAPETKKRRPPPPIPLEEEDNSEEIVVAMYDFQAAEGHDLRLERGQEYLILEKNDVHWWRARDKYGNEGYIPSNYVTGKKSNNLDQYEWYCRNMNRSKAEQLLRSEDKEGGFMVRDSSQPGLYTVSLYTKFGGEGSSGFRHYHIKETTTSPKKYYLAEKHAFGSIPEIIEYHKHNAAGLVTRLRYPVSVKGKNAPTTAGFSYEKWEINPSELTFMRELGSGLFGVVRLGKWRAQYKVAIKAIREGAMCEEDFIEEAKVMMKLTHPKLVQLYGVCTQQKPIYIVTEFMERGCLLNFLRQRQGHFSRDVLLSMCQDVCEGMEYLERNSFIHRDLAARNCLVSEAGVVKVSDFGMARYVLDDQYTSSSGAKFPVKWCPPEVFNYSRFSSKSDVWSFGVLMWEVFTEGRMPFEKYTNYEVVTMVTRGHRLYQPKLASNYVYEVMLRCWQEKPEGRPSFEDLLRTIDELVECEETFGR
Sequence of EGFR T790M/L858R (P00533 25-1210 T790M/L858R limits assumed): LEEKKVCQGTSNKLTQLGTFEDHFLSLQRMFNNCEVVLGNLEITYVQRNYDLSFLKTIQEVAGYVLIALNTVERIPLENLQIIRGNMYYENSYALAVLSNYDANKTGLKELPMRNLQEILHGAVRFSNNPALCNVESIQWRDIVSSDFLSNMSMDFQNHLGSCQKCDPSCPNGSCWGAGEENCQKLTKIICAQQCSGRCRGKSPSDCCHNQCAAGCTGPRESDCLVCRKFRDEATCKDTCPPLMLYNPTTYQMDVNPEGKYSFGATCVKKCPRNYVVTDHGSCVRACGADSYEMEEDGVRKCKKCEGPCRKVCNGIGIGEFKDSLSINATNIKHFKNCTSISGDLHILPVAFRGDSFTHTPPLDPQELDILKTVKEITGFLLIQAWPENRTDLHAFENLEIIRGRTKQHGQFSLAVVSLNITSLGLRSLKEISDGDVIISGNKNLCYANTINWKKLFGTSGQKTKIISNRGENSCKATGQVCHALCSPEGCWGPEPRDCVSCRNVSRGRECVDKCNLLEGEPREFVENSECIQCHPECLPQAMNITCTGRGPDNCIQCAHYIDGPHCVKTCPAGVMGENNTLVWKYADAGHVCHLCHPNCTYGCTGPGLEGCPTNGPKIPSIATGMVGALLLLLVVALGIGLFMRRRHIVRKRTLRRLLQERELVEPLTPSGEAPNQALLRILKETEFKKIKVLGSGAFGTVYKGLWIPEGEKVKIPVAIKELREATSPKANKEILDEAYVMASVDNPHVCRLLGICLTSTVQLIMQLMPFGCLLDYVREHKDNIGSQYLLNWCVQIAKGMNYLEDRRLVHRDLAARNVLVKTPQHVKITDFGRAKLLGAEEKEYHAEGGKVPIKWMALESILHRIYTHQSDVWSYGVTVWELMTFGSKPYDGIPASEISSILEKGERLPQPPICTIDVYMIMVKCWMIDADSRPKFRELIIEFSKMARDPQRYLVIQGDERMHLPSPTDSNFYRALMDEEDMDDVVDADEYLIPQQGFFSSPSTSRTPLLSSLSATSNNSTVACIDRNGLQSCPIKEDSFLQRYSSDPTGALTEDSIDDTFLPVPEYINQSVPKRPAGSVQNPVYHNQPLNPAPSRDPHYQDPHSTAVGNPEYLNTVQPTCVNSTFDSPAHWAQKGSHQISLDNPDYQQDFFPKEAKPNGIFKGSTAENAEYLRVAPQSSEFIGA

pIC50 (BTK): < 6.12
pIC50 [1]: 6.30 to 7.00
pIC50 (HCC827 NSCLC cell): 5.00 to 6.00
SMILES: CC#CC(=O)N1CCC[C@H]1c1nc(-c2ccc(OCc3ccc(C(F)(F)F)cc3)cc2)c2c(N)nccn12 [Compound 2, (S)-1-(2-(8-amino-1-(4-((4-(trifluoromethyl)benzyl)oxy)phenyl)imidazo[1,5-a]pyrazin-3-yl)pyrrolidin-1-yl)but-2-yn-1-one]

pIC50 (BTK): 6.52 to 7.00
pIC50 [1]: ≥ 7.00
pIC50 (HCC827 NSCLC cell): 5.00 to 6.00
SMILES: C=CC(=O)N1CCC[C@H]1c1nc(-c2ccc(OCc3ccccn3)cc2)c2c(N)nccn12 [Compound 29, (S)-1-(2-(8-amino-1-(4-(pyridin-2-ylmethoxy)phenyl)imidazo[1,5-a]pyrazin-3-yl)pyrrolidin-1-yl)prop-2-en-1-one]

pIC50 (BTK): < 6.12
SMILES: CC#CC(=O)N1CCC[C@H]1c1nc(-c2ccc(OCc3ccccc3)nc2)c2c(N)nccn12 [Compound 9, (S)-1-(2-(8-amino-1-(6-(benzyloxy)pyridin-3-yl)imidazo[1,5-a]pyrazin-3-yl)pyrrolidin-1-yl)but-2-yn-1-one]

Further lines, the compound ahead of its results:

SMILES: CC#CC(=O)N1CCC[C@H]1c1nc(-c2ccc(C(=O)Nc3ccccn3)cc2)c2c(N)nccn12 [ACP-196, Acalabrutinib, reference compound]
pIC50 (Txk (h)): 5.30
pIC50 [1]: ≥ 7.00
pIC50 (HCC827 NSCLC cell): < 5.00
t1/2 ([2]; male SD rat): 7.9 h
AUC(0-inf) ([2]; plasma, male SD rat): 1400 ng·h/mL
Cmax ([2]; plasma, male SD rat): 668 ng/mL
half-life ([2]; plasma, male SD rat): 7.9 h
AUC(0-t) ([2]; plasma, male SD rat): 1300 ng·h/mL

SMILES: CC#CC(=O)N1CCC[C@H]1c1nc(-c2ccc(OCc3ccc(F)cc3)cc2)c2c(N)nccn12 [Compound 3, (S)-1-(2-(8-amino-1-(4-((4-fluorobenzyl)oxy)phenyl)imidazo[1,5-a]pyrazin-3-yl)pyrrolidin-1-yl)but-2-yn-1-one]
pIC50 (BTK): < 6.12
pIC50 [1]: 6.30 to 7.00
pIC50 (HCC827 NSCLC cell): < 5.00

SMILES: CC#CC(=O)N1CCC[C@H]1c1nc(-c2ccc(OCc3cc(F)ccn3)cc2)c2c(N)nccn12 [Compound 6, (S)-1-(2-(8-amino-1-(4-((4-fluoropyridin-2-yl)methoxy)phenyl)imidazo[1,5-a]pyrazin-3-yl)pyrrolidin-1-yl)but-2-yn-1-one]
pIC50 (BTK): < 6.12
pIC50 [1]: 6.30 to 7.00
pIC50 (HCC827 NSCLC cell): < 5.00

SMILES: C=CC(=O)N1CCC[C@H]1c1nc(-c2ccc(OCc3ccccc3)nc2)c2c(N)nccn12 [Compound 25, (S)-1-(2-(8-amino-1-(6-(benzyloxy)pyridin-3-yl)imidazo[1,5-a]pyrazin-3-yl)pyrrolidin-1-yl)prop-2-en-1-one]
pIC50 (BTK): ≥ 7.00
pIC50 [1]: ≥ 7.00
pIC50 (HCC827 NSCLC cell): < 5.00

SMILES: CC#CC(=O)N1CCC[C@H]1c1nc(-c2ccc(OCc3ccccn3)cc2)c2c(N)nccn12 [Compound 5, (S)-1-(2-(8-amino-1-(4-(pyridin-2-ylmethoxy)phenyl)imidazo[1,5-a]pyrazin-3-yl)pyrrolidin-1-yl)but-2-yn-1-one]
pIC50 (BTK): 6.12 to 6.52

SMILES: CC#CC(=O)N1CCC[C@H]1c1nc(-c2ccc(OCCc3ccccc3)cc2)c2c(N)nccn12 [Compound 17, (S)-1-(2-(8-amino-1-(4-phenethoxyphenyl)imidazo[1,5-a]pyrazin-3-yl)pyrrolidin-1-yl)but-2-yn-1-one]
pIC50 (BTK): 6.12 to 6.52

SMILES: CC#CC(=O)N1CCC[C@H]1c1nc(-c2ccc(OCc3ccccc3)cc2)c2c(N)nccn12 [Compound 1, (S)-1-(2-(8-amino-1-(4-(benzyloxy)phenyl)imidazo[1,5-a]pyrazin-3-yl)pyrrolidin-1-yl)but-2-yn-1-one]
pIC50 (BTK): ≥ 7.00
inhibitory effect on EGFR (in words) (EGFR T790M/L858R): does not inhibit
pIC50 (EGFR T790M/L858R; Km ATP): < 5.00
inhibitory activity to ITK (in words) (Itk (h)): very low
pIC50 (Itk (h); Km ATP, radiometric): < 5.00
inhibitory activity to Tec (in words) (Tec (h) activated): very low
pIC50 (Tec (h) activated; Km ATP, radiometric): 6.66
inhibitory activity to Txk (in words) (Txk (h)): very low
pIC50 (Txk (h)): 5.34
pIC50 [1]: ≥ 7.00
pIC50 (HCC827 NSCLC cell): < 5.00
t1/2 ([2]; male SD rat): 4.2 h
AUC(0-inf) ([2]; plasma, male SD rat): 3490 ng·h/mL
Cmax ([2]; plasma, male SD rat): 1540 ng/mL
Tmax ([2]; plasma, male SD rat): 0.5 h
half-life ([2]; plasma, male SD rat): 4.2 h
AUC(0-t) ([2]; plasma, male SD rat): 3480 ng·h/mL
AUC relative to ACP-196 ([2]; rat): more than double
Cmax relative to ACP-196 ([2]; rat): more than double
half-life compared to ACP-196 (in words) ([2]; rat): shorter half-life
plasma exposure amount compared to ACP-196 (in words) ([2]; rat): higher plasma exposure amount
T/C (relative tumor volume increased ratio) ([3]; 50 mg/kg oral once a day): 71%
T/C (relative tumor volume increased ratio) ([3]; 100 mg/kg oral once a day): 7%
T/C (relative tumor volume increased ratio) ([3]; 200 mg/kg oral once a day): −91%
weight of the animal compared to before the administration ([3]; each administration group, 50, 100, 200 mg/kg oral): increased
inhibition of growth of TMD-8 transplanted tumor (in words) ([3]; oral administration, 50-200 mg/kg): inhibit the growth of TMD-8 transplanted tumor dose-dependently; also recorded: dosage-dependently inhibit the growth

SMILES: C=CC(=O)N1CCC[C@H]1c1nc(-c2ccc(OCc3ccccc3)cc2)c2c(N)nccn12 [Compound 21, (S)-1-(2-(8-amino-1-(4-(benzyloxy)phenyl)imidazo[1,5-a]pyrazin-3-yl)pyrrolidin-1-yl)prop-2-en-1-one]
pIC50 (BTK): ≥ 7.00
pIC50 [1]: ≥ 7.00
pIC50 (HCC827 NSCLC cell): < 5.00
